Results from US12286401B2, “Small molecules that sensitize HIV-1 infected cells to antibody dependent cellular cytotoxicity” (THE TRUSTEES OF THE UNIVERSITY OF PENNSYLVANIA, priority 2018, dated 2025).
“And” between values parts separate entries of the source, which are not always exact repeats. Identical values can stand only once.

Tests used:
Solubility in PBS = type: physicochemical; details: Yes/NO
[1] = system: HIV-1JR-FL EnvΔCT expressed at the surface of HOS cells; test: Cell-based ELISA (CBE), 17b readout; details: for Fold over BNM-III-170 - 17b binding (±0.05): MCG analogs 50 μM, BNM-III-170 5 μM, 2G12 and DMSO normalized; for capacity to expose the CoRBS (17b binding, CBE): compounds 50 μM, result in words
Procedure, shortened: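 HOS cells transiently expressing cytoplasmic-tail-truncated HIV-1JR-FL Env were treated 30 min at room temperature with compounds (50 μM), sCD4 ([…]) or DMSO, then 1 h with 17b antibody. Bound 17b was detected by HRP-conjugated anti-Fc chemiluminescence; values are fold over BNM-III-170 (5 μM), normalized to 2G12 and DMSO.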

CS(=O)(=O)N1CCC[C@H](C(=O)Nc2ccc(Br)cc2)C1 [(S)-MCG-III-027-A02]
Solubility (in PBS) (Solubility in PBS): Yes | Fold over BNM-III-170 - 17b binding (±0.05) [1]: 0.36 fold

CS(=O)(=O)N1CCC[C@H](C(=O)Nc2ccc(F)cc2)C1 [(S)-MCG-III-027-A03]
Solubility (in PBS) (Solubility in PBS): Yes | Fold over BNM-III-170 - 17b binding (±0.05) [1]: 0.12 fold

CS(=O)(=O)N1CCC[C@H](C(=O)Nc2cccc(Cl)c2)C1 [(S)-MCG-III-027-B01]
Solubility (in PBS) (Solubility in PBS): Yes | Fold over BNM-III-170 - 17b binding (±0.05) [1]: 0.10 fold

CS(=O)(=O)N1CCC[C@H](C(=O)Nc2cccc(Br)c2)C1 [(S)-MCG-III-027-B02]
Solubility (in PBS) (Solubility in PBS): Yes | Fold over BNM-III-170 - 17b binding (±0.05) [1]: 0.10 fold

CS(=O)(=O)N1CCC[C@H](C(=O)Nc2cccc(F)c2)C1 [(S)-MCG-III-027-B03]
Solubility (in PBS) (Solubility in PBS): Yes | Fold over BNM-III-170 - 17b binding (±0.05) [1]: 0.13 fold

CS(=O)(=O)N1CCC[C@H](C(=O)Nc2cccc(C(F)(F)F)c2)C1 [(S)-MCG-III-027-B04]
Solubility (in PBS) (Solubility in PBS): Yes | Fold over BNM-III-170 - 17b binding (±0.05) [1]: 0.07 fold

COc1cccc(NC(=O)[C@H]2CCCN(S(C)(=O)=O)C2)c1 [(S)-MCG-III-027-B05]
Solubility (in PBS) (Solubility in PBS): Yes | Fold over BNM-III-170 - 17b binding (±0.05) [1]: 0.06 fold

CS(=O)(=O)N1CCC[C@H](C(=O)Nc2ccccc2Cl)C1 [(S)-MCG-III-027-C01]
Solubility (in PBS) (Solubility in PBS): Yes | Fold over BNM-III-170 - 17b binding (±0.05) [1]: 0.06 fold

CS(=O)(=O)N1CCC[C@H](C(=O)Nc2ccc(F)cc2F)C1 [(S)-MCG-III-027-D04]
Solubility (in PBS) (Solubility in PBS): Yes | Fold over BNM-III-170 - 17b binding (±0.05) [1]: 0.07 fold

CS(=O)(=O)N1CCC[C@H](C(=O)Nc2ccc(Cl)c(F)c2)C1 [(S)-MCG-III-027-D05]
Solubility (in PBS) (Solubility in PBS): Yes | Fold over BNM-III-170 - 17b binding (±0.05) [1]: 0.46 fold and 0.58 fold | capacity to expose the CoRBS (17b binding, CBE) [1]: enhanced the capacity

CCS(=O)(=O)N1CCC[C@H](C(=O)Nc2ccc(Cl)c(F)c2)C1 [(S)-MCG-III-085-C01]
Solubility (in PBS) (Solubility in PBS): Yes | Fold over BNM-III-170 - 17b binding (±0.05) [1]: 0.35 fold

Cn1cnc(S(=O)(=O)N2CCC[C@H](C(=O)Nc3ccc(Cl)c(F)c3)C2)c1 [(S)-MCG-III-116-A02]
Fold over BNM-III-170 - 17b binding (±0.05) [1]: 0.24 fold

COC(=O)N1CCC[C@H](C(=O)Nc2ccc(Cl)c(F)c2)C1 [(S)-MCG-III-188-A01]
Solubility (in PBS) (Solubility in PBS): Yes | Fold over BNM-III-170 - 17b binding (±0.05) [1]: 0.50 fold | capacity to expose the CoRBS (17b binding, CBE) [1]: higher activity

CCOC(=O)N1CCC[C@H](C(=O)Nc2ccc(Cl)c(F)c2)C1 [(S)-MCG-III-188-A02]
Solubility (in PBS) (Solubility in PBS): Yes | Fold over BNM-III-170 - 17b binding (±0.05) [1]: 0.53 fold | capacity to expose the CoRBS (17b binding, CBE) [1]: higher activity

CCCNC(=O)N1CCC[C@H](C(=O)Nc2ccc(Cl)c(F)c2)C1 [(S)-MCG-IV-031-A05]
Fold over BNM-III-170 - 17b binding (±0.05) [1]: 0.55 fold | capacity to expose the CoRBS (17b binding, CBE) [1]: higher activity

NCCNC(=O)N1CCC[C@H](C(=O)Nc2ccc(Cl)c(F)c2)C1 [(S)-MCG-IV-210]
Fold over BNM-III-170 - 17b binding (±0.05) [1]: 0.58 fold | capacity to expose the CoRBS (17b binding, CBE) [1]: higher activity

O=C(Nc1ccc(Cl)c(F)c1)C1CCCN(S(=O)(=O)c2ccccc2)C1 (stereo not drawn) [MCG-III-157-B03]
Fold over BNM-III-170 - 17b binding (±0.05) [1]: 0.43 fold

Cn1cnc(S(=O)(=O)N2CCCC(C(=O)Nc3ccc(Cl)c(F)c3)C2)c1 (stereo not drawn) [MCG-III-157-B04]
Solubility (in PBS) (Solubility in PBS): Yes | Fold over BNM-III-170 - 17b binding (±0.05) [1]: 0.69 fold

O=C(Nc1ccc(Cl)c(F)c1)C1CCCOC1 (stereo not drawn) [MCG-III-207]
Solubility (in PBS) (Solubility in PBS): Yes | Fold over BNM-III-170 - 17b binding (±0.05) [1]: 0.48 fold
